These results are taken from patent EP4413976B1, “A NEW VAMOROLONE PREPARATION EXHIBITING IMPROVED SOLUBILITY” (Santhera Pharmaceuticals (Schweiz) AG, priority 2023, dated 2024).

Each structure is given as a SMILES string. In brackets after ≈: the same amount, converted by molar mass.

By solubility is commonly meant how much of the substance goes into solution per volume. Read a high solubility as a readily soluble substance.

Series [1] can be described thus: kinetic solubility in FaSSIF (Pion µDissolution monitor). The note with it: thermodynamic from solid, FaSSIF pH 6.5, 37° C. It counts as physicochemical. On the procedure: SDD prototypes were evaluated for kinetic solubility in FaSSIF (Fasted State Simulated Intestinal Fluid, pH = 6.5) using the Pion µDissolution monitor with a tip path length of 2 mm. Data were collected using AUPro software over a period of 18 hours in 20 mL of each media, heated to 37 ± 2 °C. A stir speed of 250 rpm for the duration of the experiment.

The test system of series [2] is inflammatory states. The note with it: multiple mouse models of inflammatory states, background statement; cited from earlier work.
Series [3] in a line: solvent solubility screening of micronized Vamorolone (visual, solvent added in aliquots). Format: physicochemical. The note with it: for 200 µl / +100 µl: 10 mg Vamorolone; for 200 µl: dissolved after 200 µl; for +100 µl: dissolved after further 100 µl. On the procedure:
The solubility of micronized Vamorolone was assessed in several typical organic solvent systems suitable for use in spray drying.
A quantity of 10 mg of Vamorolone was dispensed into a 2 mL HPLC vial. The experimental design was to add the test solvent in aliquots, 200 µl and 100 µl. After each aliquot addition the sample was to be mixed on a vortex mixer for 1 minute and solubility assessed visually. Observations were also made after one hour of solvent addition.

In series [4] the target is T1, glucocorticoid receptor (Homo sapiens, UniProt P04150).
T1 sequence (P04150 1-777): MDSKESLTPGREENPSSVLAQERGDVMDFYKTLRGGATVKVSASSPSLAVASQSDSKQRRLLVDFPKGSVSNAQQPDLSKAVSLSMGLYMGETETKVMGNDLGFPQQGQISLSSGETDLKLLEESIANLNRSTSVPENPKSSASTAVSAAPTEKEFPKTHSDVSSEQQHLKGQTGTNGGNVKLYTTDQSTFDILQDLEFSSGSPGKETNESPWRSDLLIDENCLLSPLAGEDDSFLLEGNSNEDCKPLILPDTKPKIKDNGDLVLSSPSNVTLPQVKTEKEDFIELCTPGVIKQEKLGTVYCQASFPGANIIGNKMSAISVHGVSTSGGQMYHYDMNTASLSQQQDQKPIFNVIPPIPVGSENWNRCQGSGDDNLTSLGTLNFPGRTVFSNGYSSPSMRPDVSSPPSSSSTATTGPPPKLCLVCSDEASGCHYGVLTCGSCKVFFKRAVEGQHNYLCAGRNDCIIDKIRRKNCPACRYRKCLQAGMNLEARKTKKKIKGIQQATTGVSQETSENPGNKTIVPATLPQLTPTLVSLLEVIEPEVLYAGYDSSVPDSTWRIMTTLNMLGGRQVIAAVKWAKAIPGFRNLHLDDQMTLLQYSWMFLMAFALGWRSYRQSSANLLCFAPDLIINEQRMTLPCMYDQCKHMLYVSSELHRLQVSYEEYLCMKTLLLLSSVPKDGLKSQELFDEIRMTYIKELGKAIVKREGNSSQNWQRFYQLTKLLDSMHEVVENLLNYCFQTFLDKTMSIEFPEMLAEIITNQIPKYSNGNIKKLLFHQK
The note with it: pre-clinical data, background statement; cited from earlier work.

Series [5] is described as follows: solubility in aqueous solution at 37°C. It counts as physicochemical.
Series [6] in a line: storage of cryo-milled amorphous Vamorolone. It counts as physicochemical. Particulars: room temperature in a closed container.

As to `C[C@@H]1C[C@H]2[C@@H]3CCC4=CC(=O)C=C[C@]4(C)C3=CC[C@]2(C)[C@@]1(O)C(=O)CO` [Crystalline API, 17α,21-dihydroxy-16α-methylpregna-1,4,9(11)-triene-3,20-dione], in series [1] (T=5 min), the concentration in solution (solubility at 5 min) was 46.4 µg/mL (≈ 130 µM). In series [1] (T=30 min), the solubility at 30 min came to 48.9 µg/mL (≈ 137 µM). This compound also yielded a solubility at 1 h in series [1] (T=1 hour) of 49.2 µg/mL (≈ 138 µM). In series [1] (T=4 hour), this compound showed a solubility at 4 h of 49 µg/mL (≈ 137 µM). In series [1] (T=12 hour), this compound came in with a solubility at 12 h of 48.8 µg/mL (≈ 137 µM). Further, the concentration in solution in series [1] (T=18 hour) (solubility at 18 h) came to 48.7 µg/mL (≈ 137 µM).
For `C[C@@H]1C[C@H]2[C@@H]3CCC4=CC(=O)C=C[C@]4(C)C3=CC[C@]2(C)[C@@]1(O)C(=O)CO` [Vamorolone, 17α,21-dihydroxy-16α-methylpregna-1,4,9(11)-triene-3,20-dione], the efficacy entry in series [2] is listed as “efficacy similar to prednisolone”. Besides, the “Observation 1 hour after solubility assessment” value is given as “Hazy” in series [3] (Acetone); “Clear” in series [3] (DCM); “Clear” in series [3] (DCM:Methanol (1:1)); “Clear” in series [3] (DCM:Methanol (1:3)); “Hazy” in series [3] (Ethanol); “Hazy” in series [3] (Ethyl Acetate). Further, the “Observation 1 hour after solubility assessment” value in series [3] (Isopropanol) was “Hazy”; in series [3] (Methanol) it was “Clear”; in series [3] (Water) it was “Hazy”. The “Observation after solubility assessment” value was “Hazy” in series [3] (Acetone); “Clear” in series [3] (DCM); “Clear” in series [3] (DCM:Methanol (1:1)); “Clear” in series [3] (DCM:Methanol (1:3)); “Hazy” in series [3] (Ethanol); “Hazy” in series [3] (Ethyl Acetate). In addition, the “Observation after solubility assessment” value in series [3] (Isopropanol) is on record as “Hazy”; in series [3] (Methanol), “Clear”; in series [3] (Water) it was “Hazy”. Besides, the “200 µl” value is recorded as “×” in series [3] (Acetone); “✔” in series [3] (DCM:Methanol (1:1)); “✔” in series [3] (DCM:Methanol (1:3)); “×” in series [3] (DCM); “×” in series [3] (Ethanol); “×” in series [3] (Ethyl Acetate). Further, the “200 µl” value in series [3] (Isopropanol), in series [3] (Methanol) and in series [3] (Water) was “×” throughout. The “+100 µl” value in series [3] (Acetone) is listed as “×”; in series [3] (DCM), “✔”; in series [3] (Ethanol), “×”; in series [3] (Ethyl Acetate) it was “×”; in series [3] (Isopropanol), “×”; in series [3] (Methanol) it was “✔”. In series [3] (Water), the “+100 µl” value is recorded as “×”. Besides, the clear solution in series [3] (DCM (dichloromethane):methanol (1:1)) and in series [3] (DCM (dichloromethane):methanol (1:3)) was 50 mg/mL in each case. Moreover, the “binding to the glucocorticoid receptor” value in series [4] is given as “binds potently”. Moreover, the solubility in series [5] was about 40 µg/mL (≈ 112 µM).
With `C[C@@H]1C[C@H]2[C@@H]3CCC4=CC(=O)C=C[C@]4(C)C3=CC[C@]2(C)[C@@]1(O)C(=O)CO` [amorphous Vamorolone, 17α,21-dihydroxy-16α-methylpregna-1,4,9(11)-triene-3,20-dione], in series [6], the “physical stability of the amorphous form” value was “recrystallize within days”.
